Among the data in patent US7592336B2, “Hepatitis C virus inhibitors” (Bristol-Myers Squibb Company, priority 2005, dated 2009) are IC50 and EC50 values, retold here.

The subject of test [1] is T1, human pancreatic chymotrypsin.
T1 construct: "human pancreatic chymotrypsin"
The experiment in a line: Specificity assay, chymotrypsin. It counts as biochemical. The following applies: 2 h enzyme-inhibitor pre-incubation; read-out: Chymotrypsin activity in the specificity assays (IC50). On the procedure:
The specificities of compounds of the present disclosure were determined against a variety of serine proteases: human neutrophil elastase (HNE), porcine pancreatic elastase (PPE) and human pancreatic chymotrypsin and one cysteine protease: human liver cathepsin B. In all cases a 96-well plate format protocol using calorimetric p-nitroaniline (pNA) substrate specific for each enzyme was used as described previously (PCT Patent Application No. WO 00/09543) with some modifications to the serine protease assays. All enzymes were purchased from Sigma while the substrates were from Bachem.
Each assay included a 2 h enzyme-inhibitor pre-incubation at room temperature followed by addition of substrate and hydrolysis to 30% conversion as measured on a Spectramax Pro microplate reader. Compound concentrations varied from 100 to 0.4 μM depending on their potency. […]
The percentage of inhibition was calculated using the formula: [1−((UVinh−UVblank)/(UVctl−UVblank))]×100 […]

Test [2] relates to HCV replicon (Renilla luciferase) in HUH-7 cells. The experiment in a line: HCV replicon luciferase reporter assay. It counts as cell-based, HCV strain 1b. The following applies: Huh-7, 96 h, 4 days. An excerpt:
As a secondary assay, EC50 determinations from the replicon FRET assay were confirmed in a replicon luciferase reporter assay. Utilization of a replicon luciferase reporter assay was first described by Krieger et al (Krieger N, Lohmann V, and Bartenschlager R, J. Virol. 75(10):4614-4624 (2001)). The replicon construct described for our FRET assay was modified by inserting cDNA encoding a humanized form of the Renilla luciferase gene and a linker sequence fused directly to the 3′-end of the luciferase gene. This insert was introduced into the replicon construct using an Asc1 restriction site located in core, directly upstream of the neomycin marker gene. The adaptive mutation at position 1179 (serine to isoleucine) was also introduced (Blight K J, Kolykhalov, A A, Rice, C M, Science 290(5498):1972-1974). A stable cell line constitutively expressing this HCV replicon construct was generated as described above. The luciferase reporter assay was set up as described for the HCV replicon FRET assay with the following modifications. Following 4 days in a 37° C./5% CO2 incubator, cells were analyzed for Renilla Luciferase activity using the Promega Dual-Glo Luciferase Assay System. […] Plates were read on a Packard TopCount NXT using a luminescence program.
The percentage inhibition was calculated using the formula below: […]
The values were graphed and analyzed using XLfit to obtain the EC50 value.
(Replicon systems follow genome replication, usually without infectious particles.)

Test [3] has as its system HCV replicon in HUH-7 cells. The experiment in a line: HCV replicon FRET assay. The format is cell-based, HCV strain 1b. The conditions noted are these: Hepatitis C virus. The source says:
An HCV replicon whole cell system was established as described by Lohmann V, Korner F, Koch J, Herian U, Theilmann L, Bartenschlager R., Science 285(5424):110-3 (1999). This system enabled us to evaluate the effects of our HCV Protease compounds on HCV RNA replication. Briefly, using the HCV strain 1b sequence described in the Lohmann paper (Assession number: AJ238799), an HCV cDNA was synthesized by Operon Technologies, Inc. (Alameda, Calif.), and the full-length replicon was then assembled in plasmid pGem9zf(+) (Promega, Madison, Wis.) using standard molecular biology techniques. The replicon consists of (i) the HCV 5′ UTR fused to the first 12 amino acids of the capsid protein, (ii) the neomycin phosphotransferase gene (neo), (iii) the IRES from encephalomyocarditis virus (EMCV), and (iv) HCV NS3 to NS5B genes and the HCV 3′ UTR. Plasmid DNAs were linearized with ScaI and RNA transcripts were synthesized in vitro using the T7 MegaScript transcription kit (Ambion, Austin, Tex.) according to manufacturer's directions. In vitro transcripts of the cDNA were transfected into the human hepatoma cell line, HUH-7. […] Resulting cell lines were characterized for positive and negative strand RNA production and protein production over time.
The HCV replicon FRET assay was developed to monitor the inhibitory effects of compounds described in the disclosure on HCV viral replication. HUH-7 cells, constitutively expressing the HCV replicon, were grown in Dulbecco's Modified Eagle Media (DMEM) (Gibco-BRL) containing 10% Fetal calf serum (FCS) (Sigma) and 1 mg/ml G418 (Gibco-BRL). Cells were seeded the night before (1.5×10^4 cells/well) in 96-well tissue-culture sterile plates. Compound and no compound controls were prepared in DMEM containing 4% FCS, 1:100 Penicillin/Streptomysin (Gibco-BRL), 1:100 L-glutamine and 5% DMSO in the dilution plate (0.5% DMSO final concentration in the assay). Compound/DMSO mixes were added to the cells and incubated for 4 days at 37° C. After 4 days, cells were first assessed for cytotoxicity using alamar Blue (Trek Diagnotstic Systems) for a CC50 reading. The toxicity of compound (CC50) was determined by adding 1/10th volume of alamar Blue to the media incubating the cells. After 4 h, the fluorescence signal from each well was read, with an excitation wavelength at 530 nm and an emission wavelength of 580 nm, using the Cytofluor Series 4000 (Perspective Biosystems). Plates were then rinsed thoroughly with Phosphate-Buffered Saline (PBS) (3 times 150 μl). The cells were lysed with 25 μl of a lysis assay reagent containing an HCV protease substrate (5× cell Luciferase cell culture lysis reagent (Promega #E153A) diluted to 1× with distilled water, NaCl added to 150 mM final, the FRET peptide substrate (as described for the enzyme assay above) diluted to 10 μM final from a 2 mM stock in 100% DMSO. […]. The plate was then placed into the Cytofluor 4000 instrument which had been set to 340 nm excitation/490 nm emission, automatic mode for 21 cycles and the plate read in a kinetic mode. EC50 determinations were carried out as described for the IC50 determinations.

In general, IC50 refers to the concentration that gives 50% inhibition. A word on the EC50: it is the concentration that produces a half-maximal response.

Read-outs that look alike come from different tables or passages of the source.

Consider `C=C[C@@H]1C[C@]1(NC(=O)[C@@H]1C[C@@](O)(c2ccc(-c3ccccc3)cc2)CN1C(=O)[C@@H](NC(=O)OC(C)(C)C)C(C)(C)C)C(=O)NS(=O)(=O)C1CC1` [Compound 3], for which the IC50 in test [1] is greater than 100000 nM. For the same compound, the EC50 in test [2] is 14 nM; in test [3] (96 h, HUH-7 replicon cells, 4 days, read-out: EC50 in the replicon FRET assay), 28 nM; in test [3] (Huh-7, HCV replicon cell assay, read-out: Activity Range (EC50)), 10 to 1000 nM.
